# Laboratory results as given in patent publication US20230312605A1, “PYRROLO[2,1-F][1,2,4]TRIAZINES AND PREPARATION AND USES THEREOF” (BioSplice Therapeutics, Inc., priority 2021, published 2023).
# Target: recombinant DYRK1A kinase (Homo sapiens (Human), UniProt Q13627)
# Experiment: DYRK1A kinase assay (Ser/Thr 18 peptide Z-lyte FRET assay)
# Format: biochemical
# Conditions: recombinant DYRK1A 0.25 µg/mL, ATP 15 µM, Ser/Thr peptide 18 4 µM, one hour at room temperature; table head prints EC50, method says IC50
# Procedure: Representative compounds were screened using the assay procedure for DYRK1A kinase activity as described below.
# Each compound was dissolved in DMSO as a 10 mM stock and used to prepare compound source plates. Serial dilution (1:3, 11-point dose-response curves from 10 µM to 0.00016 µM) and compound transfer was performed using the ECHO 550 (Labcyte, Sunnyvale, CA) into 1536-well black-walled round bottom plates (Corning).
# The DYRK1A kinase assay was run using the Ser/Thr 18 peptide Z-lyte assay kit according to manufacturer’s instructions (Life Technologies- a Division of Thermo-Fisher). This is a non-radioactive assay using fluorescence resonance energy transfer (FRET) between coumarin and fluorescein to detect kinase activity which is represented as a ratio of coumarin emission/fluorescein emission.
# Briefly, recombinant DYRK1A kinase, ATP and Ser/Thr peptide 18 were prepared in 1X Kinase buffer to final concentrations of 0.25 µg/mL, 15 µM, and 4 µM respectively. The mixture was allowed to incubate with the representative compounds for one hour at room temperature. All reactions were performed in duplicate. Unphosphorylated (“0% Control”) and phosphorylated (“100% control”) forms of Ser/Thr 18 served as control reactions. Additionally, an 11-point dose-response curve of Staurosporine (1uM top) was run to serve as a positive compound control.
# After incubation, Development Reagent A was diluted in Development Buffer then added to the reaction and allowed to further incubate for one hour at room temperature. The plate was read at Ex 400 Em 455 to detect the coumarin signal and Ex 400 Em 520 to measure the signal (EnVision Multilabel Plate Reader, PerkinElmer).
# The Emission ratio (Em) was calculated as a ratio of the coumarin (C) emission signal (at 445 nm)/Fluorescein (F) emission signal (at 520 nm). The percent phosphorylation was then calculated using the following formula: [1 — ((Em ratio X F100%)—C100%)/ ((C0%—C100%) + (Em ratio X (F100% - F0%)))]. Dose-response curves were generated, and inhibitory concentration (IC50) values were calculated using non-linear regression curve fit in the Dotmatics’ Studies Software (Bishops Stortford, UK).
row,SMILES,EC50 [nM]
1,CC(=O)N[C@]1(C)C[C@@H](Nc2ncc3c(-c4ccc5ncccc5c4)ccn3n2)C1 [Compound 1980],1
2,"Cc1nc2ccc(-c3ccn4nc(N[C@@H]5[C@@H]6COC[C@@H]65)ncc34)nc2n1CC(F)F [Compound 1914, N-((lR,5S,6s)-3-Oxabicyclo[3.1.0]hexan-6-yl)-5-(3-(2,2-difluoroethyl)-2-methyl-3H-imidazo[4,5-b]pyridin-5-yl)pyrrolo[2,1-f][1,2,4]triazin-2-amine]",5
3,Cc1nc2c(F)cc(-c3ccn4nc(NCC(C)(C)F)ncc34)cc2n1C(C)C [Compound 500],44
4,"CC(C)CN1CC2(CC(Nc3ncc4c(-c5cnc6nccn6c5)ccn4n3)C2)C1 [Compound 1756, 5-(Imidazo[1,2-a]pyrimidin-6-yl)-N-(2-isobutyl-2-azaspiro[3.3]heptan-6-yl)pyrrolo [2,1-f][1,2,4]triazin-2-amine]",18
5,"COCCNc1ncc2c(-c3ccc4nccn4c3)ccn2n1 [Compound 9, 5-(Imidazo[1,2-a]pyridin-6-yl)-N-(2-methoxyethyl)pyrrolo[2,1-f][1,2,4] triazin-2-amine]",81
6,"Cc1nc2ccc(-c3ccn4nc(N[C@@H]5COC[C@H]5O)ncc34)nc2n1CC(F)F [Compound 1906, (3S,4R)-4-((5-(3-(2,2-Difluoroethyl)-2-methyl-3H-imidazo [4,5-b]pyridin-5-yl)pyrrolo[2,1-f][1,2,4]triazin-2-yl)amino)tetrahydrofuran-3-ol]",4
7,"Cc1nc2ccc(-c3ccn4nc(N[C@@H]5CCOC[C@@H]5O)ncc34)nc2n1CC(F)F [Compound 1865, (3R,4R)-4-((5-(3-(2,2-Difluoroethyl)-2-methyl-3H-imidazo[4,5-b]pyridin-5-yl)pyrrolo[2,1-f][1,2,4]triazin-2-yl)amino)tetrahydro-2H-pyran-3-ol]",20
8,"CC(C)(CNc1ncc2c(-c3cnc4nccn4c3)ccn2n1)C(F)(F)F [Compound 221, 5-(Imidazo[1,2-a]pyrimidin-6-yl)-N-(3,3,3-trifluoro-2,2-dimethylpropyl) pyrrolo[2,1-f][1,2,4]triazin-2-amine]",29
9,"COC[C@H]1C[C@H](Nc2ncc3c(-c4ccc5nccnc5c4)ccn3n2)C1 [Compound 1377, N-(trans-3-(Methoxymethyl)cyclobutyl)-5-(quinoxalin-6-yl)pyrrolo[2,1-f] [1,2,4]triazin-2-amine]",8
10,"COCCO[C@H]1CC[C@@H](Nc2ncc3c(-c4cnc5nccn5c4)ccn3n2)CC1 [Compound 265, 5-(Imidazo[1,2-a]pyrimidin-6-yl)-N-(cis-4-(2-methoxyethoxy)cyclohexyl) pyrrolo[2,1-f] [1,2,4]triazin-2-amine]",6
11,"C[C@@H](Nc1ncc2c(-c3cnc4nccn4c3)ccn2n1)C1CC1 [Compound 231, (R)-N-(1-Cyclopropylethyl)-5-(imidazo[1,2-a]pyrimidin-6-yl)pyrrolo[2,1-f] [1,2,4]triazin-2-amine]",28
12,"COC[C@@H](C)Nc1ncc2c(-c3cnc4nccn4c3)ccn2n1 [Compound 223, (R)-5-(Imidazo[1,2-a]pyrimidin-6-yl)-N-(1-methoxypropan-2-yl)pyrrolo[2,1-f][1,2,4]triazin-2-amine]",101
13,"Cc1nc2ncc(-c3ccn4nc(NC5CCC6(CC5)OCCO6)ncc34)cc2n1CC(F)F [Compound 1880, 5-(1-(2,2-Difluoroethyl)-2-methyl-1H-imidazo[4,5-b]pyridin-6-yl)-N-(1,4-dioxaspiro[4.5]decan-8-yl)pyrrolo[2,1-f][1,2,4]triazin-2-amine]",3
14,"CO[C@H]1CC[C@@H](Nc2ncc3c(-c4cnc5ncccc5c4)ccn3n2)CC1 [Compound 1537, N-(cis-4-Methoxycyclohexyl)-5-(1,8-naphthyridin-3-yl)pyrrolo[2,1-f] [1,2,4]triazin-2-amine]",3
15,"Cc1nc2ccc(-c3ccn4nc(N[C@@H]5CCN(C6COC6)C[C@@H]5F)ncc34)nc2n1CC(F)F [Compound 1954, 5-(3-(2,2-Difluoroethyl)-2-methyl-3H-imidazo[4,5-b]pyridin-5-yl)-N-((3 S,4R)-3-fluoro-1-(oxetan-3-yl)piperidin-4-yl)pyrrolo[2,1-f] [1,2,4]triazin-2-amine]",6
16,"CCO[C@H]1CC[C@@H](Nc2ncc3c(-c4cnc5nccn5c4)ccn3n2)CC1 [Compound 263, N-(cis-4-Ethoxycyclohexyl)-5-(imidazo[1,2-a]pyrimidin-6-yl)pyrrolo[2,1-f][1,2,4]triazin-2-amine]",6
17,"c1cn2cc(-c3ccn4nc(NCC5CC5)ncc34)ccc2n1 [Compound 16, N-(Cyclopropylmethyl)-5-(imidazo[1,2-a]pyridin-6-yl)pyrrolo[2,1-f][1,2,4] triazin-2-amine]",48
18,"COCCO[C@H]1C[C@@H](Nc2ncc3c(-c4cnc5ncccc5c4)ccn3n2)C1 [Compound 1522, N-(cis-3-(2-Methoxyethoxy)cyclobutyl)-5-(1,8-naphthyridin-3-yl)pyrrolo [2,1-f][1,2,4]triazin-2-amine]",3
19,"CCO[C@H]1C[C@@H](Nc2ncc3c(-c4cnc5nccn5c4)ccn3n2)C1 [Compound 242, N-(cis-3-Ethoxycyclobutyl)-5-(imidazo[1,2-a]pyrimidin-6-yl)pyrrolo[2,1-f] [1,2,4]triazin-2-amine]",5
20,"CC1(CNc2ncc3c(-c4cnc5nccn5c4)ccn3n2)CC1 [Compound 225, 5-(Imidazo[1,2-a]pyrimidin-6-yl)-N-((1-methylcyclopropyl)methyl)pyrrolo [2,1-f][1,2,4]triazin-2-amine]",11

# Second part, the compound after the results:
row,EC50 [nM],SMILES
1,6,"Cc1nc2ccc(-c3ccn4nc(NC5CCN(C6COC6)CC5)ncc34)nc2n1CC(F)F [Compound 1862, 5-(3-(2,2-Difluoroethyl)-2-methyl-3H-imidazo[4,5-b]pyridin-5-yl)-N-(1-(oxetan-3-yl)piperidin-4-yl)pyrrolo[2,1-f][1,2,4]triazin-2-amine]"
2,6,"Cc1nc2ccc(-c3ccn4nc(N[C@H]5CC[C@@H](O)CC5)ncc34)nc2n1CC(F)F [Compound 1109, cis-4-((5-(3-(2,2-Difluoroethyl)-2-methyl-3H-imidazo[4,5-b]pyridin-5-yl)pyrrolo[2,1-f][1,2,4]triazin-2-yl)amino)cyclohexan-1-ol]"
3,3,"Cc1nc2ccc(-c3ccn4nc(N[C@H]5CCCOC5)ncc34)nc2n1CC(F)F [Compound 1864, (S)-5-(3-(2,2-Difluoroethyl)-2-methyl-3H-imidazo[4,5-b]pyridin-5-yl)-N-(tetrahydro-2H-pyran-3-yl)pyrrolo[2,1-f][1,2,4]triazin-2-amine]"
4,6,"Cc1nc2ccc(-c3ccn4nc(N[C@H]5CC[C@@H](CN6CCN(C)CC6)CC5)ncc34)nc2n1CC(F)F [Compound 1841, 5-(3-(2,2-Difluoroethyl)-2-methyl-3H-imidazo[4,5-b]pyridin-5-yl)-N-(cis-4-((4-methylpiperazin-1-yl)methyl)cyclohexyl)pyrrolo[2,1-f][1,2,4]triazin-2-amine]"
5,5,Cc1nc2ccc(-c3ccn4nc(NC5CCC6(CC5)OCCO6)ncc34)nc2n1CC(F)F [Compound 1847]
6,5,"Cc1nc2ccc(-c3ccn4nc(N[C@@H]5CCN(C)C[C@@H]5F)ncc34)nc2n1CC(F)F [Compound 1853, 5-(3-(2,2-Difluoroethyl)-2-methyl-3H-imidazo[4,5-b]pyridin-5-yl)-N-((3S,4R)-3-fluoro-1-methylpiperidin-4-yl)pyrrolo[2,1-f][1,2,4]triazin-2-amine]"
7,4,"Cc1nc2ccc(-c3ccn4nc(NC5CCC6(CC5)CN(C)C6)ncc34)nc2n1CC(F)F [Compound 1846, 5-(3-(2,2-Difluoroethyl)-2-methyl-3H-imidazo[4,5-b]pyridin-5-yl)-N-(2-methyl-2-azaspiro[3.5]nonan-7-yl)pyrrolo[2,1-f][1,2,4]triazin-2-amine]"
8,7,Cc1nc2ccc(-c3ccn4nc(NC5CCN(CCF)CC5)ncc34)nc2n1CC(F)F [Compound 1849]
9,8,"Cc1nc2ccc(-c3ccn4nc(NC5CCN(CC(F)F)CC5)ncc34)nc2n1CC(F)F [Compound 1850, 5-(3-(2,2-Difluoroethyl)-2-methyl-3H-imidazo[4,5-b]pyridin-5-yl)-N-(1-(2,2-difluoroethyl)piperidin-4-yl)pyrrolo[2,1-f][1,2,4]triazin-2-amine]"
10,16,"Cc1nc2ccc(-c3ccn4nc(NC5CCN(C)CC5)ncc34)nc2n1CC(F)F [Compound 1131, 5-(3-(2,2-Difluoroethyl)-2-methyl-3H-imidazo[4,5-b]pyridin-5-yl)-N-(1-methylpiperidin-4-yl)pyrrolo[2,1-f][1,2,4]triazin-2-amine]"
11,11,Cc1nc2ccc(-c3ccn4nc(NC5CCN(CCC(F)(F)F)CC5)ncc34)nc2n1CC(F)F [Compound 1851]
